From patent US9867798B2, “Ladostigil therapy for immunomodulation” (priority 2012, dated 2018)

What was measured:
[1] = test system: mice with DSS-induced colitis; test: Acute colitis induced by DSS in mice: body weight, stool, bleeding, DAI, colon length; assay type: in vivo, BALB/c OlaHsd mice
Description: BALB/c OlaHsd male mice aged 8-9 weeks and weighing 25-30 g were purchased from Harlan (Jerusalem, Israel) and housed in standard cages of up to 5 per cage in the pathogen free Animal Facility of the Institute for Drug Research. All experiments were performed in accordance with the Principles of Laboratory Animal Care (NIH publication #85-23, revised 1985) protocols MD-09-12197-4. Acute colitis was induced in mice by administration of 5% DSS solution (M.Wt.=[…], MP Biomedicals, LLC, Solon, Ohio, USA) in water for 8 days. The DSS solution was freshly prepared every day. Mice were provided with food and water or DSS solution ad libitum during the experiment. They were divided into groups of 10 as follows: Vehicle control group: mice drank water and were given water (1 ml/100 gm) once daily by gavage for 8 days; Drug control group: mice drank water and were given ladostigil (10 mg/kg) by gavage once daily for 8 days. DSS untreated group: mice drank 5% DSS for 7 days and water on the 8th day and were given water (1 ml/100 g) once daily by gavage for 8 days. Drug treated group: mice drank 5% DSS followed by water as above and were given ladostigil (5 or 10 mg/kg) by gavage once daily for 8 days. The volume of 5% DSS solution consumed was measured for each group of mice and the average volume/mouse was calculated. On the eighth day, the mice were anesthetized by CO2 and sacrificed by cervical dislocation 2 h after the last dose of ladostigil. Samples of colon and spleen were taken for measurement of cytokines MPO, cytokines and ChE activity.
Body weight, stool consistency and the presence of blood in the stools was recorded daily for each mouse. […] The score ranged between 0-4 for all three parameters and was composed as follows: Weight loss: none=0, 1-5%=1, 5-10%=2, 10-20%=3, >20%=4. Percent of weight loss on days 7 and 8 relative to the first day was calculated for all the groups. […] Bleeding: none=0, hemoccult=2, gross bleeding=4. The maximum DAI score was 4 based on a combination of scores of weight loss (relative to that on the first day of the experiment), stool consistency and bleeding, divided by 3. After sacrifice the length of the colon segment from the cecum to the rectum was measured.

[2] = test system: rat heart ischemia/reperfusion; test: Myocardial ischemic preconditioning, isolated Langendorff hearts of chronically treated rats; assay type: in vivo, Wistar rats; parameters: DP: unit not given beside the values; conditions: for DP / HR / WI: old rats; for WI: percent of value at end of stabilization
Description: Four groups of male rats of the Wistar strain were used for these studies; a) 3-months old untreated; b) 22 months old, untreated; c) 22 months old treated from the age of 16 months by daily oral administration of ladostigil hemitartrate at a dose of 1 mg/kg/day (hereinafter “low dose”; d) 22 months old treated from the age of 16 months by daily oral administration of ladostigil hemitartrate at a dose of 8.5 mg/kg/day (hereinafter “high dose”).
On the day of the experiment, rats were injected with i.p. sodium heparin (500 units/kg) followed 30 min later by 80 mg/kg ketamine plus 5 mg/kg xylazine i.p. Bilateral thoracotomy was performed and hearts with a segment of the ascending aorta were rapidly excised, put in ice-cold heparinized saline and mounted onto the Langendorff apparatus. They were perfused with a modified Krebs-Henseleit (KH) buffer as described in Chevion et al. (1993). Heart rate (HR), developed pressure (DP), and its derivatives (+dp/dt and −dp/dt) were recorded. All primary data were processed using a customized version of LabView 7.1 software (National Instruments, Austin, Tex., USA). Work index (WI=Heart Rate×DP) was used as an indicator of heart contractility. The degree of cardio-protection was expressed by the percent (ratio) of two values: WI at the completion of the experiment (at the 120th min) and WI at the completion of the stabilization phase (at the 10th min).
Experimental protocol: Three basic experimental protocols were employed: (i) continuous (un-interrupted) perfusion: (ii) stabilization (25 min) followed by ischemia and reperfusion (35/60 min) (I/R), and (iii) stabilization (10 min) followed by IPC, ischemia and reperfusion (IPC+I/R). The hemodynamic parameters of the heart were monitored and recorded continuously throughout, during all experimental protocols. Under the I/R protocol, the stabilization phase was extended from 10 to 25 min to compensate for the 15 min of the IPC procedure, which consisted of 3 cycles of (2 min ischemia and 3 min perfusion).

MAO-A = biological target: T1, MAO-A (Rattus norvegicus, UniProt P21396); test: MAO-A activity in heart of treated rats; assay type: in vivo; conditions: read-out: MAO-A activity in the heart inhibited
T1 construct: from tissue; host or cells: heart of aged Wistar rats after chronic oral dosing
T1 sequence (P21396 1-526): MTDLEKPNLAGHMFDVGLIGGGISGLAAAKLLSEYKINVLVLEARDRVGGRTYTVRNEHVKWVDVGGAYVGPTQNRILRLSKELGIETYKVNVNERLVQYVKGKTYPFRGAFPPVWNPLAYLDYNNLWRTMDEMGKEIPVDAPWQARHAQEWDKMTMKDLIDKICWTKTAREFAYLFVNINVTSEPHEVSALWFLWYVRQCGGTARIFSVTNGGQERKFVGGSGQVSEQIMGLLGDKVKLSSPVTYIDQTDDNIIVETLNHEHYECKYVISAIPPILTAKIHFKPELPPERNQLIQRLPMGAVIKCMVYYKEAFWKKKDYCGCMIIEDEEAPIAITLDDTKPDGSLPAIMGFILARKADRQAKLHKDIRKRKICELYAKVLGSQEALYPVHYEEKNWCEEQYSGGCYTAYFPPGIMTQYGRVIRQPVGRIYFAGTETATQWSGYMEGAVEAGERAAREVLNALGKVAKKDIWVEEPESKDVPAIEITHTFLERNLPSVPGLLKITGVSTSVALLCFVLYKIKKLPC

BuChE = BuChE (Homo sapiens, UniProt P06276); test: Relative potency in inhibiting BuChE and AChE
[3] = IPC + I/R, high dose 8.5 mg/kg/day
[4] = IPC + I/R, low dose 1 mg/kg/day

Chain of BuChE (P06276 29-602): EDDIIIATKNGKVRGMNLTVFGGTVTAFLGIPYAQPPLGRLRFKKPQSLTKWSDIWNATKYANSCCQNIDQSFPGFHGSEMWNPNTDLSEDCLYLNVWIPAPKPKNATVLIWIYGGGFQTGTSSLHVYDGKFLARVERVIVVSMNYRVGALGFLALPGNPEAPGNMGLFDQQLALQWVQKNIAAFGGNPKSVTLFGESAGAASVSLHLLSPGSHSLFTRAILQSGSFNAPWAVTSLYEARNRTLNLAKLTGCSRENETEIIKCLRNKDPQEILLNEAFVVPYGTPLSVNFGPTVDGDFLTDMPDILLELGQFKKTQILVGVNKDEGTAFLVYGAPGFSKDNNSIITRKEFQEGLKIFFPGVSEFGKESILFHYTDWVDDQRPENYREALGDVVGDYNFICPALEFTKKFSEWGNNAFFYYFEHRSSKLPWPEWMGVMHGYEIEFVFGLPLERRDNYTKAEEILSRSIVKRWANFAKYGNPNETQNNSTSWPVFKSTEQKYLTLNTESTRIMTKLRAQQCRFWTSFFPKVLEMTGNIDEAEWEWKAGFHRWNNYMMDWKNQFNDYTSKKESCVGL

C#CCN[C@@H]1CCc2ccc(OC(=O)N(C)CC)cc21 [Ladostigil, R(+)-6-(N-methyl, N-ethyl-carbamoyloxy)-N′-propargyl-1-aminoindan]
Decrease in colon length and signs of hyperemia and inflammation ([1]; 5% DSS, 5 and 10 mg/kg, untreated decrease >30%): significantly less
Reduction of DSS-induced weight loss ([1]; 5% DSS, both doses (5 and 10 mg/kg), untreated loss 15%): ~50%
Diarrhea ([1]; 5% DSS, day 7, both doses (5 and 10 mg/kg)): significantly decreased
Bleeding ([1]; 5% DSS, day 8, 5 mg/kg): significantly decreased
Disease activity index (DAI) ([1]; 5% DSS, days 7 and 8, drug treated groups vs DSS-water, p<0.01): significantly different from that of the group drinking DSS given water
Body weight increase during 8 days ([1]; mice receiving 5 or 10 mg/kg by gavage, no DSS): 2-3%
Effect on WI after ischemia and 60 min reperfusion ([2]; aging rats, I/R without IPC, either dose): no significant effect
DP ([2]; I/R, high dose 8.5 mg/kg/day): 14 ± 6
HR ([2]; I/R, high dose 8.5 mg/kg/day): 83 ± 8
WI ([2]; I/R, high dose 8.5 mg/kg/day): 12 ± 5%
DP ([2]; I/R, low dose 1 mg/kg/day): 20 ± 10
HR ([2]; I/R, low dose 1 mg/kg/day): 67 ± 15
WI ([2]; I/R, low dose 1 mg/kg/day): 13 ± 6%
DP [2, 3]: 30 ± 12
HR [2, 3]: 92 ± 28
WI ([2]; IPC + I/R, high dose 8.5 mg/kg/day, 8.5 mg/kg/day): 26 ± 6%
WI ([2]; IPC + I/R, high dose 8.5 mg/kg/day, listed as ladostigil, 8.5 mg/kg/day): much smaller
DP [2, 4]: 68 ± 15
HR [2, 4]: 77 ± 8
WI ([2]; IPC + I/R, low dose 1 mg/kg/day, 1 mg/kg/day): 53 ± 12%
WI ([2]; IPC + I/R, low dose 1 mg/kg/day, listed as ladostigil, 1 mg/kg/day): > 50%
inhibition at 8.5 mg/kg/day (MAO-A): 50 to 60%
Potency in inhibiting BuChE relative to AChE (BuChE): at least ten times more potent in inhibiting BuChE than in inhibiting AChE
